Measured values from ChEMBL document CHEMBL3885861, “Open TG-GATES”.

Species on record: Rattus norvegicus
Test: Open TG-GATES - Regimen: Single
Assay type: toxicity, organism-based, Sprague-Dawley
Parameters: regimen Single, gender Male, age 6 weeks
Details: in vivo, po, 10 mg/kg, route gavage, dose level Middle; for APTT / Bas / Eos / Fbg / Hb / Ht / Lym / MCH / MCHC / MCV / Mono / Neu / PT / Plat / RBC / Ret / WBC: tissue Blood; for KIDNEY_L / KIDNEY_R / KIDNEY_TOTAL: tissue Kidney; for LIVER: tissue Liver; for A/G / ALP / ALT / AST / BUN / CRE / Ca / Cl / DBIL / GLC / IP / K / LDH / Na / PL / RALB / TBIL / TC / TG / TP / gamma-GTP: tissue Plasma

CN(C)CCC(c1ccc(Cl)cc1)c1ccccn1 (configuration not stated) [CHLORPHENIRAMINE]
TERMINAL_BW (3 h): 196.8 g | APTT (3 h): 19.7 s | Bas (3 h): 0% | Eos (3 h): 0.4% | Fbg (3 h): 295.8 mg/dL | Hb (3 h): 13.5 g/dL | Ht (3 h): 42% | Lym (3 h): 77.4% | MCH (3 h): 21.3 pg | MCHC (3 h): 32.1% | MCV (3 h): 66.1 fL | Mono (3 h): 3% | Neu (3 h): 18.2% | PT (3 h): 14.7 s | Plat (3 h): 126.4 x10_4/uL | RBC (3 h): 634 x10_4/ul | Ret (3 h): 9.7% | WBC (3 h): 73.4 x10_2/uL | KIDNEY_L (3 h): 0.8 g | KIDNEY_R (3 h): 0.8 g | KIDNEY_TOTAL (3 h): 1.6 g | LIVER (3 h): 9 g | A/G (3 h): 0.9 | ALP (3 h): 1551 IU/L | ALT (3 h): 47.4 IU/L | AST (3 h): 74.6 IU/L | BUN (3 h): 9.2 mg/dL | CRE (3 h): 0.2 mg/dL | Ca (3 h): 10.9 mg/dL | Cl (3 h): 107.6 meq/L | DBIL (3 h): 0.006 mg/dL | GLC (3 h): 180.2 mg/dL | IP (3 h): 10.3 mg/dL | K (3 h): 4.1 meq/L | LDH (3 h): 200.6 IU/L | Na (3 h): 144.6 meq/L | PL (3 h): 156 mg/dL | RALB (3 h): 2.6 g/dL | TBIL (3 h): 0.046 mg/dL | TC (3 h): 84.6 mg/dL | TG (3 h): 75 mg/dL | TP (3 h): 5.5 g/dL | gamma-GTP (3 h): 1 IU/L | TERMINAL_BW (6 h): 195.1 g | APTT (6 h): 21.5 s | Bas (6 h): 0% | Eos (6 h): 1% | Fbg (6 h): 297 mg/dL | Hb (6 h): 13.2 g/dL | Ht (6 h): 41% | Lym (6 h): 74.4% | MCH (6 h): 20.6 pg | MCHC (6 h): 32.2% | MCV (6 h): 64 fL | Mono (6 h): 3% | Neu (6 h): 20.8% | PT (6 h): 14.9 s | Plat (6 h): 129.3 x10_4/uL | RBC (6 h): 641.2 x10_4/ul | Ret (6 h): 8.8% | WBC (6 h): 74.4 x10_2/uL | KIDNEY_L (6 h): 0.8 g | KIDNEY_R (6 h): 0.9 g | KIDNEY_TOTAL (6 h): 1.7 g | LIVER (6 h): 8.4 g | A/G (6 h): 0.9 | ALP (6 h): 1438.8 IU/L | ALT (6 h): 42.2 IU/L | AST (6 h): 73.4 IU/L | BUN (6 h): 7.8 mg/dL | CRE (6 h): 0.2 mg/dL | Ca (6 h): 10.5 mg/dL | Cl (6 h): 107 meq/L | DBIL (6 h): 0.006 mg/dL | GLC (6 h): 177.4 mg/dL | IP (6 h): 10.1 mg/dL | K (6 h): 4.2 meq/L | LDH (6 h): 176 IU/L | Na (6 h): 142.6 meq/L | PL (6 h): 140.6 mg/dL | RALB (6 h): 2.5 g/dL | TBIL (6 h): 0.04 mg/dL | TC (6 h): 80.8 mg/dL | TG (6 h): 42.6 mg/dL | TP (6 h): 5.5 g/dL | gamma-GTP (6 h): 1.6 IU/L | TERMINAL_BW (9 h): 192.7 g | APTT (9 h): 17.7 s | Bas (9 h): 0% | Eos (9 h): 1% | Fbg (9 h): 292.6 mg/dL | Hb (9 h): 13.3 g/dL | Ht (9 h): 41.3% | Lym (9 h): 76.2% | MCH (9 h): 20.8 pg | MCHC (9 h): 32.3% | MCV (9 h): 64.3 fL | Mono (9 h): 1.8% | Neu (9 h): 20.6% | PT (9 h): 15.1 s | Plat (9 h): 123.4 x10_4/uL | RBC (9 h): 643.8 x10_4/ul | Ret (9 h): 8.5% | WBC (9 h): 67.8 x10_2/uL | KIDNEY_L (9 h): 0.9 g | KIDNEY_R (9 h): 0.9 g | KIDNEY_TOTAL (9 h): 1.8 g | LIVER (9 h): 7.5 g | A/G (9 h): 0.9 | ALP (9 h): 1406.4 IU/L | ALT (9 h): 35.2 IU/L | AST (9 h): 69 IU/L | BUN (9 h): 7.2 mg/dL | CRE (9 h): 0.1 mg/dL | Ca (9 h): 10.4 mg/dL | Cl (9 h): 105.6 meq/L | DBIL (9 h): 0.008 mg/dL | GLC (9 h): 162 mg/dL | IP (9 h): 10.4 mg/dL | K (9 h): 4 meq/L | LDH (9 h): 145.2 IU/L | Na (9 h): 142.4 meq/L | PL (9 h): 131.2 mg/dL | RALB (9 h): 2.5 g/dL | TBIL (9 h): 0.054 mg/dL | TC (9 h): 80 mg/dL | TG (9 h): 37.8 mg/dL | TP (9 h): 5.5 g/dL | gamma-GTP (9 h): 1.4 IU/L | TERMINAL_BW (24 h): 209.2 g | APTT (24 h): 21.6 s | Bas (24 h): 0% | Eos (24 h): 0.8% | Fbg (24 h): 287.6 mg/dL | Hb (24 h): 12.5 g/dL | Ht (24 h): 38.8% | Lym (24 h): 76.4% | MCH (24 h): 20.7 pg | MCHC (24 h): 32.4% | MCV (24 h): 63.9 fL | Mono (24 h): 3.8% | Neu (24 h): 18.2% | PT (24 h): 14.8 s | Plat (24 h): 118.2 x10_4/uL | RBC (24 h): 606.6 x10_4/ul | Ret (24 h): 8.5% | WBC (24 h): 79.8 x10_2/uL | KIDNEY_L (24 h): 0.9 g | KIDNEY_R (24 h): 0.9 g | KIDNEY_TOTAL (24 h): 1.7 g | LIVER (24 h): 9 g | A/G (24 h): 0.9 | ALP (24 h): 1569.6 IU/L | ALT (24 h): 46.4 IU/L | AST (24 h): 77.8 IU/L | BUN (24 h): 14.8 mg/dL | CRE (24 h): 0.2 mg/dL | Ca (24 h): 10.8 mg/dL | Cl (24 h): 106.6 meq/L | DBIL (24 h): 0.01 mg/dL | GLC (24 h): 184.2 mg/dL | IP (24 h): 8.2 mg/dL | K (24 h): 4.3 meq/L | LDH (24 h): 132.2 IU/L | Na (24 h): 142.8 meq/L | PL (24 h): 142.8 mg/dL | RALB (24 h): 2.6 g/dL | TBIL (24 h): 0.04 mg/dL | TC (24 h): 76.4 mg/dL | TG (24 h): 82.6 mg/dL | TP (24 h): 5.5 g/dL | gamma-GTP (24 h): 1.2 IU/L
